Experimental data: EP4293034A1, “A NOVEL ACYLATED DERIVATE OF PHLORETIN AND ITS USE AS ANTIOXIDANT” (Consejo Superior de Investigaciones Científicas (CSIC), priority 2022, dated 2023)
In brackets after ≈: the same amount, converted by molar mass. Read-outs that look alike come from different tables or passages of the source. Marks after values point to notes of the source that are not given here.

Experiments:
[1] = (*) data from Gonzalez-Alfonso et al, 2021, cited from earlier work; for EC50: EC50 ± SD, read-out: ABTS assay EC50; for ABTS assay TEAC: TEAC ± SD
[2] = (*) data from Gonzalez-Alfonso et al, 2021, cited from earlier work; for EC50: EC50 ± SD, read-out: DPPH assay EC50; for DPPH assay TEAC: TEAC ± SD
[3] = water, 25 °C; (*) data from Gonzalez-Alfonso et al, 2021; cited from earlier work
[4] = previously reported, Gonzalez-Alfonso et al, 2021; cited from earlier work
Aqueous solubility = type: physicochemical; settings: water, 25 °C, 72 h
Method: The compound was incubated at 25 °C in water (saturated conditions) during 3 days under orbital stirring (1000 rpm). Then, the sample was centrifuged. A volume of 200 µL of the supernatant solution was analysed by triplicate, in a 96-well plate, using a phloretin calibration curve in methanol (0-200 µg/mL). The absorbance was measured by UV spectrophotometry (Tecan Infinite M200) at 297 nm.

[5] = Antioxidant activity, ABTS assay; type: biochemical; settings: n = 3
Method: (§1) The capacity of the synthesized ester to reduce 2,2-diphenyl-1-picrylhydrazyl (DPPH) and the radical cation 2,2-azino-bis(3-ethylbenzothiazoline-6-sulfonic acid) diammonium salt (ABTS^·+) was assayed. (R)-Trolox was employed as antioxidant reference. Standard solutions with a concentration between 0 and 1000 µM for DPPH assay, and between 0 and 500 µM for ABTS assay, were prepared.

[6] = Antioxidant activity, DPPH assay; type: biochemical; settings: n = 3
Method: as §1

[7] = In vitro percutaneous absorption on Franz static diffusion cells; type: in vitro ADME; settings: pig skin model, 24 h exposure, Figure 5
Method: The study was carried out in vitro with pig biopsies placed on Franz static diffusion cells (3 mL, 1.86 cm^2 of exposed area, diameter: […], Lara-Spiral, Courtenon, France) in order to determine the distribution of active compound (API) at the different skin layers, after an exposure time of 24 hours. The pig skin, provided by the Department of Cardiology of the Hospital Clinic (Barcelona, Spain), is considered morphologically and functionally equivalent to human skin for percutaneous absorption studies. Ultra-pure water was employed as receptor fluid, and cells were placed in a thermostated water bath (32 °C) containing a magnetic stirring device to obtain the skin surface temperature at 32 ± 1 °C. The integrity of the skin samples was evaluated by measuring the transepidermal water loss (TEWL) with Tewameter TM300 (Courage & Khazaka, Cologne, Germany) considering correct TEWL values under 15 g m^-2 h^-1. […] The different samples to be analyzed (W, SC, E, D and FR) were extracted and/or diluted in methanol (Merck, Darmstadt, Germany). The phloretin, its corresponding monoglucoside and acylated monoglucoside concentrations were analyzed by HPLC, as previously described. […] The results are shown as mean values (expressed as µg/cm2) ± standard deviations. […]

[8] = TEAC ± SD, calculated from EC50 of the acyl derivative and EC50 of (R)-Trolox

Row | Solubility (Aqueous solubility) | EC50 ([5]; EC50 ± SD) | EC50 ([6]; EC50 ± SD) | percutaneous absorption, increase versus phloretin and its α-glucoside ([7]; listed as acyl-glucoside of phloretin) | percutaneous absorption, increase versus phloretin and its α-glucoside ([7]; listed as acylglucoside of phloretin) | Compound | EC50 [1] | ABTS assay TEAC [1] | EC50 [2] | DPPH assay TEAC [2] | Solubility [3] | skin absorption (in words) [4] | ABTS assay TEAC [5, 8] | DPPH assay TEAC [6, 8]
1 |  |  |  |  |  | O=C(CCc1ccc(O)cc1)c1c(O)cc(O[C@H]2O[C@H](CO)[C@@H](O)[C@H](O)[C@H]2O)cc1O [Phloretin 4'-O-α-D-(glucopyranoside), Phloretin 4'-O-α-D-Glucopyranoside] | 16.9 ± 0.5 µM | 0.64 ± 0.06 | 285 ± 20 µM | 8.1 ± 0.6 |  |  |  | 
2 |  |  |  |  |  | O=C(CCc1ccc(O)cc1)c1c(O)cc(O)cc1O [Phloretin, 2',4',6'-trihydroxy-3-(4-hydroxyphenyl)-propiophenone] | 11.7 ± 0.6 µM | 0.45 ± 0.04 | 217 ± 14 µM | 6.2 ± 0.4 | 23.2 ± 0.3* mg/L | the same absorption pattern, without significant differences |  | 
3 | 6.0 ± 0.2 µg/mL (≈ 9.7 µM) | 14.7 ± 0.7 µM | 439 ± 13 µM | approx. 3 fold | 3 fold | CCCCCCCCCCCC(=O)OC[C@H]1O[C@H](Oc2cc(O)c(C(=O)CCc3ccc(O)cc3)c(O)c2)[C@H](O)[C@@H](O)[C@@H]1O [phloretin 4'-O-(6-O-lauroyl)-α-D-glucopyranoside] |  |  |  |  |  |  | 0.47 ± 0.04 | 11.4 ± 0.8
